For one series, the target named is T1, 11β-HSD1 (Homo sapiens, UniProt P28845).
T1 construct: expressed in transfected cells; host or cells: HEK 293 (stably transfected, HEK 293/HSD11B1)
The experiment in a line: 11β-HSD1 HEK assay (cell based assay, SPA). The settings on record: HEK293; at 1 μM; whole HEK 293 cells stably transfected with the HSD11B1 gene, 3H-cortisone substrate; read-out: Activity (inhibition of 11β-HSD1). The gist of the method: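 Human 11β-HSD1 activity was assessed in intact HEK 293 cells stably expressing the HSD11B1 gene, grown in 96-well plates to 80% confluence. Serum-free medium with ^3H-cortisone and compound in 1% DMSO was added and incubated at 37° C. Medium was then mixed with anti-cortisol antibody and SPA beads, and tritiated product was counted by scintillation to derive percentage inhibition versus high and low controls.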

Bounds are passed on as bounds.

T1 sequence (P28845 whole entry): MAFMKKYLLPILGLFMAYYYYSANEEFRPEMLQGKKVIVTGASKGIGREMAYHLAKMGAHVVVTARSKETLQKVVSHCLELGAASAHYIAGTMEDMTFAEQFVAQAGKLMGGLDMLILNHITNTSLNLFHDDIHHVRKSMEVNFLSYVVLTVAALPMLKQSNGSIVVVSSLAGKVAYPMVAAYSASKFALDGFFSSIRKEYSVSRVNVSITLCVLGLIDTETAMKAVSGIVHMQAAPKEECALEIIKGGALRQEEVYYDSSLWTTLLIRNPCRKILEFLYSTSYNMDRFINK

Consider `O=C(CSc1ccncc1)C12CC3CC(CC(C3)C1)C2` [Example 27, 1-Adamantan-1-yl-2-(pyridin-4-ylsulfanyl)-ethanone], for which the melting point lay in the range of 114 to 115 °C. Moreover, on 11β-HSD1, the inhibition at 1 µM was above 60%.

In the case of `Cn1cnnc1S(=O)(=O)CC(=O)C12CC3CC(CC(C3)C1)C2` [Example 77, 1-Adamantan-1-yl-2-(4-methyl-4H-[1,2,4]triazole-3-sulfonyl)-ethanone], the melting point lay within 149 to 150 °C. Besides, the inhibition at 1 µM on 11β-HSD1 is above 60%.

For `Cc1nnc(SCC(=O)C23CC4CC(CC(C4)C2)C3)n1C` [Example 87, 1-(Adamantan-1-yl)-2-[(4,5-dimethyl-1,2,4-triazol-3-yl)sulfanyl]ethanone], the melting point lay within 113 to 114 °C. Moreover, at 11β-HSD1, the inhibition at 1 µM is above 60%.

Molecule `O=C(Nc1nnc([S+]([O-])CC(=O)C23CC4CC(CC(C4)C2)C3)s1)C1CC1` (centres unmarked) [Example 96, N-(5-{[2-(Adamantan-1-yl)-2-oxoethane]sulfinyl}-1,3,4-thiadiazol-2-yl)cyclopropanecarboxamide] gave a melting point of 172.5 to 174 °C. Moreover, the inhibition at 1 µM on 11β-HSD1 was above 60%.

As to `O=C(CSc1n[nH]c(-c2ccco2)n1)C12CC3CC(CC(C3)C1)C2` [Example 90, 1-(Adamantan-1-yl)-2-{[5-(furan-2-yl)-1H-1,2,4-triazol-3-yl]sulfanyl}ethanone], the melting point lay within 177 to 178 °C. In addition, the inhibition at 1 µM at 11β-HSD1 is below 20%.

As for `Cn1c(SCC(=O)C23CC4CC(CC(C4)C2)C3)nnc1-c1cccs1` [Example 102, 1-(Adamantan-1-yl)-2-{[4-methyl-5-(thiophen-2-yl)-4H-1,2,4-triazol-3-yl]sulfanyl}ethan-1-one], the melting point was 156 to 157 °C. In addition, at 11β-HSD1, the inhibition at 1 µM is above 60%.

`Cc1cccc([S+]([O-])CC(=O)C23CC4CC(CC(C4)C2)C3)n1` (centres unmarked) [Example 31, 1-(adamantan-1-yl)-2-[(6-methylpyridine-2-)sulfinyl]ethan-1-one] yielded a melting point of 75 to 76 °C. Also, the inhibition at 1 µM at 11β-HSD1 is above 60%.

Regarding `Cn1c(SCC(=O)C23CC4CC(CC(C4)C2)C3)nnc1C1CC1` [Example 101, 1-(Adamantan-1-yl)-2-[(5-cyclopropyl-4-methyl-4H-1,2,4-triazol-3-yl)sulfanyl]ethan-1-one], the melting point was in the range of 96 to 97.5 °C. For the same molecule, at 11β-HSD1, the inhibition at 1 µM is above 60%.

The molecule `Nc1nnc(SCC(=O)C23CC4CC(CC(C4)C2)C3)s1` [Example 88, 1-(Adamantan-1-yl)-2-[(5-amino-1,3,4-thiadiazol-2-yl)sulfanyl]ethanone] showed a melting point of 198 to 199 °C. Further, at 11β-HSD1, the inhibition at 1 µM is above 60%.

Consider `CC(=O)Nc1nnc(SCC(=O)C23CC4CC(CC(C4)C2)C3)s1` [Example 91, N-(5-{[2-(Adamantan-1-yl)-2-oxoethyl]sulfanyl}-1,3,4-thiadiazol-2-yl)acetamide], for which the melting point lay in the range of 208 to 210 °C. The inhibition at 1 µM on 11β-HSD1 is above 60%.

With `O=C(CSCc1ccccn1)C12CC3CC(CC(C3)C1)C2` [Example 11, 1-Adamantan-1-yl-2-(pyridin-2-ylmethylsulfanyl)-ethanone], the melting point was 38 to 39 °C. Further, the inhibition at 1 µM on 11β-HSD1 was above 60%.

In turn, `O=C(CCc1cccnc1)C12CC3CC(CC(C3)C1)C2` [Example 39, 1-Adamantan-1-yl-3-pyridin-3-yl-propan-1-one] yielded a melting point of 43 to 44.5 °C. Also, the inhibition at 1 µM on 11β-HSD1 is above 60%.

As to `O=C(CS(=O)(=O)Cc1cccc[n+]1[O-])C12CC3CC(CC(C3)C1)C2` [Example 76, 1-Adamantan-1-yl-2-(1-oxy-pyridin-2-ylmethanesulfonyl)-ethanone], the melting point fell in the range of 225 to 227.5 °C. Moreover, on 11β-HSD1, the inhibition at 1 µM is above 60%.

For the molecule `Cn1nnnc1SCC(=O)C12CC3CC(CC(C3)C1)C2` [Example 92, 1-(Adamantan-1-yl)-2-[(1-methyl-1,2,3,4-tetrazol-5-yl)sulfanyl]ethanone], the melting point is 112 to 113 °C. The inhibition at 1 µM at 11β-HSD1 was above 60%.

For `Cn1ccnc1[S+]([O-])C(C)(C)C(=O)C12CC3CC(CC(C3)C1)C2` (centres unmarked) [Example 15, 1-Adamantan-1-yl-2-methyl-2-(1-methyl-1H-imidazole-2-sulfinyl)-propan-1-one], the melting point lay in the range of 98 to 102 °C. For the same molecule, on 11β-HSD1, the inhibition at 1 µM is below 20%.

`O=C(CS(=O)(=O)Cc1ccc[n+]([O-])c1)C12CC3CC(CC(C3)C1)C2` [Example 10, 1-Adamantan-1-yl-2-(1-oxy-pyridin-3-ylmethanesulfonyl)-ethanone]: the melting point fell in the range of 182 to 183.5 °C. Further, the inhibition at 1 µM at 11β-HSD1 was above 60%.

The record behind these values is patent publication US20110112151A1, “COMPOUND CAPABLE OF INHIBITING 11-BETA HYDROXYSTERIOD DEHYDROGENASE” (priority 2008, published 2011).
